Here are results for four compounds from patent publication US20230040386A1, “URSODEOXYCHOLIC ACID-CONTAINING AGENT FOR TREATING OR PREVENTING PRESBYOPIA” (priority 2018, published 2023).

Common to all, as to assay type: in vivo, C57BL/6J mice
The test system of test [1] is lens. The test is described as follows: Pharmacological Test 8: lens elasticity, glycoursodeoxycholic acid once-daily for 7 days. As for the experimental part: (§1) A vehicle comprising 0.1% (w/v) of ethyl pyruvate, 0.269% (w/v) of sodium dihydrogenphosphate monohydrate (NaH2PO4H2O), 0.433% (w/v) of disodium hydrogenphosphate (Na2HPO4), 0.2% (w/v) of hydroxypropyl methylcellulose, 0.5% (w/v) of NaCl was prepared. Glycoursodeoxycholic acid was sonicated with the addition of the vehicle to prepare a 1.0% (w/v) suspension. The total amount of each sample to be used in one day was prepared before use. 1) Each test sample (2.5 μL/eye) was instilled into both eyes of 8-month-old C57BL/6J mice with a Pipetman once per day (QD; around 13:30) for 7 days. 2) Twenty-four hours after the final instillation, the mice were euthanized by carbon dioxide inhalation, and then the eyeballs were extracted and rinsed with Hank's balanced salt solution (HBSS). 3) The sclera near the optic nerve was cut with a razor, the lens was removed through the incision, and the removed lens was immersed in HBSS. 4) The lens was placed on a glass slide, and an all-in-one fluorescence microscope BZ-9000 (Keyence) was used to capture an image of the lens (image a). […] 6) A change in the lens diameter was calculated from Equation 1 wherein the lens diameter of Image a is subtracted from the lens diameter of Image b, as described below. Then, the lens elasticity improvement of each sample group compared with the vehicle control group was calculated from Equation 2 described below. […]

Test [2] deals with lens. The test is described as follows: Pharmacological Test 2: lens elasticity after instillation of sodium ursodeoxycholate. The conditions noted are these: for Lens elasticity improvement: 2.5 μL/eye, 3 times per day, 12 to 15 days, vs vehicle control. The protocol:
A vehicle comprising 0.1% (w/v) of ethyl pyruvate, 0.269% (w/v) of sodium dihydrogenphosphate monohydrate (NaH2PO4H2O), 0.433% (w/v) of disodium hydrogenphosphate (Na2HPO4), 0.2% (w/v) of hydroxypropyl methylcellulose, 0.5% (w/v) of NaCl was prepared. Sodium ursodeoxycholate was sonicated with the addition of the vehicle to prepare a 1.5% (w/v) suspension. The resulting 1.5% (w/v) suspension was diluted with the vehicle to prepare a 0.5% (w/v) suspension. Further, the resulting 0.5% (w/v) suspension was diluted with the vehicle to prepare a 0.15% (w/v) suspension. The total amount of each sample to be used in one day was prepared before use. EV06 was sonicated with the addition of the vehicle to prepare a 1.5% (w/v) solution. The total amount of the sample to be used in one day was prepared before use. 1) Each test sample (2.5 μL/eye) was instilled into the right eye of 8-month-old C57BL/6J mice with a Pipetman 3 times per day (around 9:00, 13:00 and 17:00) for 12 to 15 days. 2) After the final instillation, the mice were euthanized by carbon dioxide inhalation, and then the eyeballs were extracted and rinsed with Hank's balanced salt solution (HBSS)). 3) The sclera near the optic nerve was cut with a razor, the lens was removed through the incision, and the removed lens was immersed in HBSS. 4) The lens was placed on a glass slide, and an all-in-one fluorescence microscope BZ-9000 (Keyence) was used to capture an image of the lens (Image a). 5) Next, one cover glass (Corning^(registered trade mark) 22×22 mm Square) was placed on the lens, and an image in which the thickness of the lens changed due to the weight was similarly captured (Image b). 6) A change in the lens diameter was calculated from Equation 1 wherein the lens diameter of Image a is subtracted from the lens diameter of Image b, as described below. Then, the lens elasticity improvement of each sample group compared with the vehicle control group was calculated from Equation 2 described below. The mean of the vehicle control group was based on 5 eyes, the mean of each sodium ursodeoxycholate sample group was based on 10 eyes, and the mean of the EV06 sample group was based on 10 eyes. Change in lens diameter Lens diameter in image b of each test sample−Lens diameter in Image a of each test sample (Equation 1) Lens elasticity improvement of each sample group=Mean change in lens diameter of each Test sample group−Mean change in lens diameter of Vehicle control group (Equation 2)

The subject of test [3] is lens. The test is described as follows: Pharmacological Test 3: lens elasticity after instillation of ursodeoxycholic acid (free form). As for the experimental part:
A vehicle comprising 0.1% (w/v) of ethyl pyruvate, 0.269% (w/v) of sodium dihydrogenphosphate monohydrate (NaH2PO4H2O), 0.433% (w/v) of disodium hydrogenphosphate (Na2HPO4), 0.2% (w/v) of hydroxypropyl methylcellulose, and 0.5% (w/v) of NaCl was prepared. Ursodeoxycholic acid was sonicated with the addition of the vehicle to prepare a 1.5% (w/v) suspension. The resulting 1.5% (w/v) suspension was diluted with the vehicle to prepare a 0.5% (w/v) suspension. Further, the resulting 0.5% (w/v) suspension was diluted with the vehicle to prepare a 0.15% (w/v) suspension. The total amount of each sample to be used in one day was prepared before use. EV06 was sonicated with the addition of the vehicle to prepare a 1.5% (w/v) solution. The total amount of the sample to be used in one day was prepared before use. 1) Each test sample (2.5 μL/eye) was instilled into the right eye of 8-month-old C57BL/6J mice with a Pipetman 3 times per day (around 9:00, 13:00 and 17:00) for 12 to 15 days. 2) After the final instillation, the mice were euthanized by carbon dioxide inhalation, and then the eyeballs were extracted and rinsed with Hank's balanced salt solution (HBSS). 3) The sclera near the optic nerve was cut with a razor, the lens was removed through the incision, and the removed lens was immersed in HBSS. 4) The lens was placed on a glass slide, and an all-in-one fluorescence microscope BZ-9000 (Keyence) was used to capture an image of the lens (Image a). 5) Next, one cover glass (Corning^(registered trade mark) 22×22 mm Square) was placed on the lens, and an image in which the thickness of the lens changed due to the weight was similarly captured (image b). 6) A change in the lens diameter was calculated from Equation 1 wherein the lens diameter of Image a is subtracted from the lens diameter of Image b, as described below. Then, the lens elasticity improvement of each sample group compared with the vehicle control group was calculated from Equation 2 described below. The mean of the vehicle control group was based on 5 eyes, the mean of each ursodeoxycholic acid sample group was based on 10 eyes, and the mean of the EV06 sample group was based on 10 eyes. Change in lens diameter=Lens diameter in Image b of each test sample−Lens diameter in Image a of each test sample (Equation 1) Lens elasticity improvement of each sample group=Mean change in lens diameter of each Test sample group−Mean change in lens diameter of Vehicle control group (Equation 2)

In test [4] the test system is lens. The test is described as follows: Pharmacological Test 7: lens elasticity, tauroursodeoxycholic acid once-daily for 7 days. The protocol: as §1, with “Tauroursodeoxycholic” for “Glycoursodeoxycholic”, “dissolved” for “sonicated”, “solution.” for “suspension.”, “7-month-old” for “8-month-old”, “(Image” for “(image”
The test system of test [5] is lens. The test is described as follows: Pharmacological Test 6: lens elasticity, ursodeoxycholic acid methyl ester once-daily for 7 days. The conditions noted are these: for Lens elasticity improvement: QD, 7-month-old mice, vs vehicle control. As for the experimental part: A vehicle comprising 0.1% (w/v) of ethyl pyruvate, 0.269% (w/v) of sodium dihydrogenphosphate monohydrate […], 0.433% (w/v) of disodium hydrogenphosphate (Na2HPO4), 0.2% (w/v) of hydroxypropyl methylcellulose, 0.5% (w/v) of NaCl was prepared. Ursodeoxycholic acid methyl ester was sonicated with the addition of the vehicle to prepare a 0.3% (w/v) suspension, a 1.0% (w/v) suspension and a 3.0% (w/v) suspension. The total amount of each sample to be used in one day was prepared before use. 1) Each test sample (2.5 μL/eye) was instilled into both eyes of 7-month-old C57BL/6J mice with a Pipetman once per day (QD; around 13:30) for 7 days. 2) Twenty-four hours after the final instillation, the mice were euthanized by carbon dioxide inhalation, and then the eyeballs were extracted and rinsed with Hank's balanced salt solution (HBSS). 3) The sclera near the optic nerve was cut with a razor, the lens was removed through the incision, and the removed lens was immersed in HBSS. 4) The lens was placed on a glass slide, and an all-in-one fluorescence microscope BZ-9000 (Keyence) was used to capture an image of the lens (Image a). 5) Next, one cover glass (Corning^(registered trade mark) 22×22 mm Square) was placed on the lens, and an image in which the thickness of the lens changed due to the weight was similarly captured (Image b). 6) A change in the lens diameter was calculated from Equation 1 wherein the lens diameter of Image a is subtracted from the lens diameter of Image b, as described below. Then, the lens elasticity improvement of each sample group compared with the vehicle control group was calculated from Equation 2 described below. Each mean of the vehicle control group and each ursodeoxycholic acid methyl ester sample group was based on 9 or 10 eyes. Change in lens diameter=Lens diameter in Image b of each test sample−Lens diameter in Image a of each test sample (Equation 1) Lens elasticity improvement of each sample group=Mean change in lens diameter of each Test sample group−Mean change in lens diameter of Vehicle control group (Equation 2)

Setting [6] is: 1.5% sample group vs EV06 at the same concentration.

In turn, `C[C@H](CCC(=O)NCC(=O)O)[C@H]1CC[C@H]2[C@@H]3[C@@H](O)C[C@@H]4C[C@H](O)CC[C@]4(C)[C@H]3CC[C@]12C` [glycoursodeoxycholic acid, N-(3α,7β-Dihydroxy-5β-cholan-24-oyl)glycine] registered a Lens elasticity improvement in the test on lens [1] (1% (w/v) suspension, QD, 8-month-old mice, vs vehicle control) of 20.1 μm. Also, the “Lens elasticity improvement, in words” value in the test with lens [1] (1% sample instilled once-daily) is recorded as “potent lens elasticity improvement”.
Regarding `C[C@H](CCC(=O)[O-])[C@H]1CC[C@H]2[C@@H]3[C@@H](O)C[C@@H]4C[C@H](O)CC[C@]4(C)[C@H]3CC[C@]12C.[Na+]` [sodium ursodeoxycholate], the Lens elasticity improvement with lens [2] (0.15% (w/v) sample) stood at 26.5 μm; in the test with lens [2] (0.5% (w/v) sample), 34.8 μm; in the test with lens [2] (1.5% (w/v) sample), 44.7 μm. Moreover, the “Lens elasticity improving effect compared with EV06, in words” value in the test on lens [2] (setting [6]) and with lens [3] (setting [6]) was “stronger than that of EV06” in each case. The “Lens elasticity improving effect, in words” value in the test on lens [2] (all of the 0.15%, 0.5% and 1.5% sample groups) was “potent lens elasticity improving effect”; with lens [3] (all of the 0.15%, 0.5% and 1.5% sample groups (Table 3)), “potent lens elasticity improving effect”.
For the compound `C[C@H](CCC(=O)NCCS(=O)(=O)O)[C@H]1CC[C@H]2[C@@H]3[C@@H](O)C[C@@H]4C[C@H](O)CC[C@]4(C)[C@H]3CC[C@]12C` [tauroursodeoxycholic acid, 3α,7β-Dihydroxy-5β-cholan-24-oic Acid N-(2-Sulfoethyl)amide], the Lens elasticity improvement in the test with lens [4] (1% (w/v) solution, QD, 7-month-old mice, vs vehicle control) is on record as 29.7 μm. Besides, the “Lens elasticity improvement, in words” value with lens [4] (1% sample instilled once-daily) is listed as “potent lens elasticity improvement”.
With `COC(=O)CC[C@@H](C)[C@H]1CC[C@H]2[C@@H]3[C@@H](O)C[C@@H]4C[C@H](O)CC[C@]4(C)[C@H]3CC[C@]12C` [ursodeoxycholic acid methyl ester], the Lens elasticity improvement in the test on lens [5] (0.3% (w/v) sample) is on record as 13.2 μm; with lens [5] (1% (w/v) sample), 33.0 μm; with lens [5] (3% (w/v) sample) it was 46.5 μm. In addition, the “Lens elasticity improvement, in words” value in the test on lens [5] (1% and 3% samples instilled once-daily) is recorded as “potent lens elasticity improvement”.
